According to US12285012B2, “Compositions comprising pyridine carboxylate herbicides with acetolactate synthase (ALS) inhibitor herbicides” (Corteva Agriscience LLC, priority 2018, dated 2025):
Read-outs that look alike come from different tables or passages of the source.

What was measured:
[1] = tested on: Canadian thistle (CIRAR, Cirsium arvense); experiment: Greenhouse postemergence herbicidal effect; format: in vivo; details: for Obs % visual injury: CIRAR
Protocol: (§1) The plants were grown for 7-36 days (d) in a greenhouse with an approximate 14-hour (h) photo-period which was maintained at about 23° C. during the day and 22° C. during the night. Nutrients and water were added on a regular basis and supplemental lighting was provided with overhead metal halide 1000-Watt lamps as necessary. The plants were employed for testing when they reached the second or third true leaf stage.
(§2) The emulsifiable concentrates also included a safener, cloquintocet-mexyl, at 120 grams active ingredient per liter (g ai/L), unless otherwise noted below.
(§3) Control plants were sprayed in the same manner with the solvent blank. All pyridine carboxylate herbicide (component a) application rates are given as “g ae/ha” and all ALS inhibitor (component b) application rates are given as “g ai/ha.”
(§4) The treated plants and control plants were placed in a greenhouse as described above and watered by sub-irrigation to prevent wash-off of the test compounds. After 20-22 d, the condition of the test plants as compared with that of the control plants was determined visually and scored on a scale of 0 to 100 percent where 0 corresponds to no injury and 100 corresponds to complete kill.

[2] = tested on: Russian thistle (SASKR, Salsola kali); experiment: Greenhouse postemergence herbicidal effect; format: in vivo
Protocol: as §1, §2, §3, §4

[3] = tested on: spring rape (BRSNN, Brassica napus); experiment: Greenhouse postemergence herbicidal effect; format: in vivo
Protocol: as §1, §2, §3, §4

[4] = tested on: wild chamomile (MATCH, Matricaria chamomilla); experiment: Greenhouse postemergence herbicidal effect; format: in vivo
Protocol: as §1, §2, §3, §4

[5] = tested on: wild mustard (SINAR, Sinapis arvensis); experiment: Greenhouse postemergence herbicidal effect; format: in vivo
Protocol: as §1, §2, §3, §4

[6] = tested on: common lambsquarters (CHEAL, Chenopodium album L.); experiment: Greenhouse postemergence herbicidal effect; format: in vivo; details: for Obs % visual injury: CHEAL
Protocol: (§5) Seeds of the desired test plant species were planted in a 90:10% v/v (volume/volume) mixture of PRO-MIX® BX (Premier Tech Horticulture, Quakertown, PA, USA) and PROFILE® GREENS GRADE™ (Profile Products LLC, Buffalo Grove, IL, USA) planting mixture, which typically has a pH of 5.2 to 6.2 and an organic matter content of at least 50 percent, in plastic pots with a surface area of 103.2 square centimeters (cm^2). […] The plants were grown for 7-36 days (d) in a greenhouse with an approximate 14-hour (h) photo-period which was maintained at about 23° C. during the day and 22° C. during the night. Nutrients and water were added on a regular basis and supplemental lighting was provided with overhead metal halide 1000-Watt lamps as necessary. The plants were employed for testing when they reached the second or third true leaf stage.
(§6) Emulsifiable concentrates of each of each pyridine carboxylate herbicide (Compound A or Compound B) were prepared at 100 grams acid equivalent per liter (g ae/L). The emulsifiable concentrates also included a safener, cloquintocet-mexyl, at 120 grams active ingredient per liter (g ai/L), unless otherwise noted below. An aliquot of each emulsifiable concentrate was placed in a 25 mL glass vial and diluted with an aqueous mixture of 1.25% (v/v) ACTIROB® B esterified rapeseed oil (Bayer Crop Science, Research Triangle Park, NC, USA) or MSO® Concentrate with LECI-TECH® methylated soybean oil (Loveland Products, Loveland, CO, USA) to obtain concentrated stock solutions at the highest application rate for each herbicide, based upon a 12 milliliter (mL) application volume at a rate of 187 liters per hectare (L/ha). The concentrated stock solutions were further diluted with an aqueous mixture of 1.25% v/v ACTIROB® B or MSO® Concentrate with LECI-TECH® to obtain stock solutions at reduced application rates for each herbicide. Spray solutions of the herbicide combinations (Compound A or Compound B plus ALS herbicide) were prepared by adding weighed amounts or aliquots of the ALS herbicides to the stock solutions of Compound A or Compound B to form 12-mL spray solutions in two- or three-way combinations.
(§7) The spray solutions were applied to the plant material with an overhead Mandel track sprayer equipped with 8002E nozzles calibrated to deliver 187 L/ha over an application area of 0.503 square meters (m^2) at a spray height of 18 inches (43 centimeters (cm)) above the average plant canopy. Control plants were sprayed in the same manner with the solvent blank. All pyridine carboxylate herbicide (component a) application rates are given as “g ae/ha” and all ALS inhibitor (component b) application rates are given as “g ai/ha.”
as §4

[7] = tested on: kochia (KCHSC, Kochia scoparia); experiment: Greenhouse postemergence herbicidal effect; format: in vivo
Protocol: as §5, §6, §7, §4

spring wheat (TRZAS) = format: in vivo, Triticum aestivum; details: for Obs % visual injury: TRZAS
Protocol: as §1, §2, §3, §4

spring barley (HORVS) = format: in vivo, Hordeum vulgare; details: for Obs % visual injury: HORVS
Protocol: as §1, §2, §3, §4

[8] = tested on: pigweed (AMARE, Amaranthus retroflexus); experiment: Greenhouse postemergence herbicidal effect; format: in vivo
Protocol: as §1, §2, §3, §4

[9] = tested on: wild buckwheat (POLCO, Polygonum convolvulus); experiment: Greenhouse postemergence herbicidal effect; format: in vivo
Protocol: as §1, §2, §3, §4

[10] = tested on: wild pansy (VIOTR, Viola tricolor); experiment: Greenhouse postemergence herbicidal effect; format: in vivo
Protocol: as §1, §2, §3, §4

[11] = tested on: winter rape (BRSNW, Brassica napus); experiment: Greenhouse postemergence herbicidal effect; format: in vivo
Protocol: as §1, §2, §3, §4

CON=C(C)c1cccc(Oc2nc(OC)cc(OC)n2)c1C(=O)O (mixture of isomers) [Pyriminobac, pyriminobac]
pest or weed control at 17.5 g/ha ([1]; Cirsium arvense, post-emergence, read-out: % visual injury, Obs): 0% | % visual injury, Obs ([2]; 17.5 g/ha): 0% | % visual injury, Obs ([3]; 17.5 g/ha): 0% | % visual injury, Obs ([4]; 17.5 g/ha): 5% | % visual injury, Obs ([5]; 17.5 g/ha): 5% | % visual injury, Obs ([6]; 17.5 g/ha): 5% | pest or weed control at 17.5 g/ha ([7]; Bassia scoparia, post-emergence, read-out: % visual injury, Obs): 0% | % visual injury, Obs (spring wheat (TRZAS); 17.5 g/ha): 0% | % visual injury, Obs (spring barley (HORVS); 17.5 g/ha): 0%

COc1cc(OC)nc(NC(=O)NS(=O)(=O)N(C)S(C)(=O)=O)n1 [Amidosulfuron, amidosulfuron]
% visual injury ([1]; Amidosulfuron 45 g/ha): 18% | pest or weed control at 22.5 g/ha ([1]; Cirsium arvense, post-emergence, 22.5 g/ha, read-out: % visual injury, Obs): 15% | % visual injury ([8]; Amidosulfuron 45 g/ha): 100% | % visual injury, Obs ([3]; 22.5 g/ha): 98% | % visual injury ([9]; Amidosulfuron 45 g/ha): 55% | % visual injury ([4]; Amidosulfuron 45 g/ha): 50% | % visual injury ([5]; Amidosulfuron 45 g/ha): 82% | % visual injury, Obs ([10]; 22.5 g/ha): 18% | % visual injury ([11]; Amidosulfuron 45 g/ha): 98% | % visual injury ([6]; Amidosulfuron 45 g/ha): 25% | % visual injury ([7]; Amidosulfuron 45 g/ha): 5% | pest or weed control at 22.5 g/ha ([7]; Bassia scoparia, post-emergence, 22.5 g/ha, read-out: % visual injury, Obs): 15%

CCOc1nc(F)cc2nc(S(=O)(=O)Nc3c(Cl)cccc3C(=O)O)nn12 [Cloransulam, cloransulam]
% visual injury Obs ([2]; Cloransulam 17.5 g/ha): 25% | % visual injury Obs ([8]; Cloransulam 17.5 g/ha): 15% | % visual injury Obs ([3]; Cloransulam 17.5 g/ha): 100% | % visual injury Obs ([9]; Cloransulam 17.5 g/ha): 80% | % visual injury Obs ([4]; Cloransulam 17.5 g/ha): 40% | % visual injury Obs ([5]; Cloransulam 17.5 g/ha): 97% | % visual injury Obs ([6]; Cloransulam 17.5 g/ha): 0% | % visual injury Obs ([7]; Cloransulam 17.5 g/ha): 0% | % visual injury Obs (spring wheat (TRZAS); Cloransulam 17.5 g/ha): 0% | % visual injury Obs (spring barley (HORVS); Cloransulam 17.5 g/ha): 15%

CCOc1nc(F)cc2nc(S(=O)(=O)Nc3c(Cl)cccc3Cl)nn12 [Diclosulam, diclosulam]
% visual injury Obs ([2]; Diclosulam 17.5 g/ha): 25% | % visual injury Obs ([8]; Diclosulam 17.5 g/ha): 85% | % visual injury Obs ([3]; Diclosulam 17.5 g/ha): 100% | % visual injury Obs ([9]; Diclosulam 17.5 g/ha): 98% | % visual injury Obs ([4]; Diclosulam 17.5 g/ha): 68% | % visual injury Obs ([5]; Diclosulam 17.5 g/ha): 100% | % visual injury Obs ([6]; Diclosulam 17.5 g/ha): 0% | % visual injury Obs ([7]; Diclosulam 17.5 g/ha): 0%

COCc1cnc(C2=NC(C)(C(C)C)C(=O)N2)c(C(=O)O)c1 (centres unmarked) [Imazamox, imazamox]
pest or weed control at 17.5 g/ha ([1]; Cirsium arvense, post-emergence, 17.5 g/ha, read-out: % visual injury, Obs): 63% | % visual injury, Obs ([10]; 17.5 g/ha): 75%

CC(C)C1(C)N=C(c2ncccc2C(=O)O)NC1=O (centres unmarked) [Imazapyr, imazapyr]
pest or weed control at 140 g/ha ([1]; Cirsium arvense, post-emergence, 140 g/ha, read-out: % visual injury, Obs): 80% | % visual injury, Obs ([10]; 140 g/ha): 63% | pest or weed control at 140 g/ha ([7]; Bassia scoparia, post-emergence, 140 g/ha, read-out: % visual injury, Obs): 54%

COc1cc(OC)nc(Sc2cccc3c2C(=O)OC3C)n1 (centres unmarked) [Pyriftalid, pyriftalid]
% visual injury, Obs ([2]; 30 g/ha): 0% | % visual injury, Obs ([3]; 30 g/ha): 18% | % visual injury, Obs ([4]; 30 g/ha): 0% | % visual injury, Obs ([5]; 30 g/ha): 23% | pest or weed control at 30 g/ha ([7]; Bassia scoparia, post-emergence, 30 g/ha, read-out: % visual injury, Obs): 0% | % visual injury, Obs (spring wheat (TRZAS); 30 g/ha): 0% | % visual injury, Obs (spring barley (HORVS); 30 g/ha): 5%

COc1nn(C(=O)NS(=O)(=O)c2c(C(=O)O)csc2C)c(=O)n1C [Thiencarbazone, thiencarbazone]
% visual injury ([1]; Thiencarbazone 5 g/ha): 10% | % visual injury Obs ([1]; Thiencarbazone 10 g/ha): 45% | % visual injury ([2]; Thiencarbazone 5 g/ha): 53% | % visual injury ([8]; Thiencarbazone 5 g/ha): 83% | % visual injury Obs ([8]; Thiencarbazone 10 g/ha): 98% | % visual injury ([9]; Thiencarbazone 5 g/ha): 89% | % visual injury Obs ([9]; Thiencarbazone 10 g/ha): 95% | % visual injury ([4]; Thiencarbazone 5 g/ha): 55% | % visual injury Obs ([4]; Thiencarbazone 10 g/ha): 80% | % visual injury ([5]; Thiencarbazone 5 g/ha): 95% | % visual injury Obs ([5]; Thiencarbazone 10 g/ha): 90% | % visual injury ([11]; Thiencarbazone 5 g/ha): 97% | % visual injury Obs ([11]; Thiencarbazone 10 g/ha): 98% | % visual injury ([6]; Thiencarbazone 5 g/ha): 60% | % visual injury Obs ([6]; Thiencarbazone 10 g/ha): 83% | % visual injury ([7]; Thiencarbazone 5 g/ha): 25% | % visual injury Obs ([7]; Thiencarbazone 10 g/ha): 45% | % visual injury (spring wheat (TRZAS); in vivo): 0% | % visual injury Obs (spring wheat (TRZAS); in vivo): 0% | % visual injury (spring barley (HORVS); in vivo): 0% | % visual injury Obs (spring barley (HORVS); in vivo): 8%

imazamethabenz
Obs % visual injury ([1]; Imazamethabenz 100 g/ha): 5% | Obs % visual injury ([1]; Imazamethabenz 200 g/ha): 5% | % visual injury ([1]; Imazamethabenz 100 g/ha): 0% | % visual injury ([2]; Imazamethabenz 100 g/ha): 0% | Obs % visual injury ([2]; SASKR, Imazamethabenz 100 g/ha): 13% | Obs % visual injury ([8]; AMARE, Imazamethabenz 200 g/ha): 5% | % visual injury ([8]; Imazamethabenz 100 g/ha): 0% | % visual injury ([9]; Imazamethabenz 100 g/ha): 70% | Obs % visual injury ([9]; POLCO, Imazamethabenz 200 g/ha): 88% | % visual injury ([4]; Imazamethabenz 100 g/ha): 0% | Obs % visual injury ([4]; MATCH, Imazamethabenz 200 g/ha): 5% | % visual injury ([5]; Imazamethabenz 100 g/ha): 68% | Obs % visual injury ([5]; SINAR, Imazamethabenz 200 g/ha): 75% | Obs % visual injury ([11]; BRSNW, Imazamethabenz 200 g/ha): 53% | % visual injury ([11]; Imazamethabenz 100 g/ha): 35% | Obs % visual injury ([6]; Imazamethabenz 100 g/ha): 0% | Obs % visual injury ([6]; Imazamethabenz 200 g/ha): 0% | % visual injury ([6]; Imazamethabenz 100 g/ha): 0% | % visual injury ([7]; Imazamethabenz 100 g/ha): 0% | Obs % visual injury ([7]; KCHSC, Imazamethabenz 200 g/ha): 0% | % visual injury (spring wheat (TRZAS); Imazamethabenz 100 g/ha): 0% | Obs % visual injury (spring wheat (TRZAS); Imazamethabenz 100 g/ha): 0% | Obs % visual injury (spring wheat (TRZAS); Imazamethabenz 200 g/ha): 0% | Obs % visual injury (spring barley (HORVS); Imazamethabenz 100 g/ha): 0% | Obs % visual injury (spring barley (HORVS); Imazamethabenz 200 g/ha): 0% | % visual injury (spring barley (HORVS); Imazamethabenz 100 g/ha): 0%
